From PubChem BioAssay AID1963864 (Molecular Pharmacology Branch, DTP, NCI, 2024)

Test system: KRAS PDC multicell spheroid viability
Test: Anticancer human tumor 521955-158-R6-J3-PDC patient-derived pancreatic carcinoma cell line growth inhibition [KRAS2]
Details: for viability, T/C: stronger effect = lower value
How it was run: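 KRAS-mutant tumor cells were grown as spheroids with HUVEC endothelial cells and human MSCs as stroma. Targeted agents were tested alone and with KRAS pathway inhibitors. Doses started at or near clinical Cmax, or 10 microM, descending half-log.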

[1] = curve of first compound, second compound 0.1 µM
[2] = curve of first compound, second compound 0.316 µM
[3] = curve of first compound, second compound 1 µM
[4] = curve of first compound, second compound 3.16 µM
[5] = curve of first compound, second compound 10 µM
[6] = second compound 0.1 µM, first compound 0.0316 µM
[7] = second compound 0.1 µM, first compound 0.1 µM
[8] = second compound 0.1 µM, first compound 0.316 µM
[9] = second compound 0.1 µM, first compound 1 µM
[10] = second compound 0.1 µM, first compound 3.16 µM
[11] = second compound 0.316 µM, first compound 0.0316 µM
[12] = second compound 0.316 µM, first compound 0.1 µM
[13] = second compound 0.316 µM, first compound 0.316 µM
[14] = second compound 0.316 µM, first compound 1 µM
[15] = second compound 0.316 µM, first compound 3.16 µM
[16] = second compound 1 µM, first compound 0.0316 µM
[17] = second compound 1 µM, first compound 0.1 µM
[18] = second compound 1 µM, first compound 0.316 µM
[19] = second compound 1 µM, first compound 1 µM
[20] = second compound 1 µM, first compound 3.16 µM
[21] = second compound 3.16 µM, first compound 0.0316 µM
[22] = second compound 3.16 µM, first compound 0.1 µM
[23] = second compound 3.16 µM, first compound 0.316 µM
[24] = second compound 3.16 µM, first compound 1 µM
[25] = second compound 3.16 µM, first compound 3.16 µM
[26] = second compound 10 µM, first compound 0.0316 µM
[27] = second compound 10 µM, first compound 0.1 µM
[28] = second compound 10 µM, first compound 0.316 µM
[29] = second compound 10 µM, first compound 1 µM
[30] = second compound 10 µM, first compound 3.16 µM
[31] = second compound 0.1 µM, first compound 0.01 µM
[32] = second compound 0.316 µM, first compound 0.01 µM
[33] = second compound 1 µM, first compound 0.01 µM
[34] = second compound 3.16 µM, first compound 0.01 µM
[35] = second compound 10 µM, first compound 0.01 µM
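Note: drug exposure lasted seven days.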
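Throughout, for viability, T/C: 100% = DMSO vehicle wells and lower means fewer viable cells.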

## CCNC(=O)CC1N=C(c2ccc(Cl)cc2)c2cc(OC)ccc2-n2c(C)nnc21 (stereo not drawn) + CC1OCC2(CCN(c3cnc(Sc4ccnc(N)c4Cl)c(N)n3)CC2)C1N
[1]
  IC50: > 10 µM
[2]
  IC50: > 10 µM
[3]
  IC50: > 10 µM
[4]
  IC50: > 10 µM
[5]
  IC50: 1.07 µM
[6]
  viability, T/C: 84.1%
[7]
  viability, T/C: 83.5%
[8]
  viability, T/C: 58.9%
[9]
  viability, T/C: 73.5%
[10]
  viability, T/C: 62.6%
Second compound 0.1 µM, first compound 10 µM
  viability, T/C: 73.3%
[11]
  viability, T/C: 102%
[12]
  viability, T/C: 90.3%
[13]
  viability, T/C: 69.3%
[14]
  viability, T/C: 68.1%
[15]
  viability, T/C: 56.4%
Second compound 0.316 µM, first compound 10 µM
  viability, T/C: 62.2%
[16]
  viability, T/C: 99.5%
[17]
  viability, T/C: 86.6%
[18]
  viability, T/C: 70.8%
[19]
  viability, T/C: 65.9%
[20]
  viability, T/C: 56.4%
Second compound 1 µM, first compound 10 µM
  viability, T/C: 59.8%
[21]
  viability, T/C: 106%
[22]
  viability, T/C: 103%
[23]
  viability, T/C: 77%
[24]
  viability, T/C: 62.6%
[25]
  viability, T/C: 58%
Second compound 3.16 µM, first compound 10 µM
  viability, T/C: 53.3%
[26]
  viability, T/C: 115%
[27]
  viability, T/C: 105%
[28]
  viability, T/C: 76.4%
[29]
  viability, T/C: 50%
[30]
  viability, T/C: 43.2%
Second compound 10 µM, first compound 10 µM
  viability, T/C: 43%

## COc1cc2nc(C)nc(NC(C)c3cc(N)cc(C(F)(F)F)c3)c2cc1OC1CCOC1 (stereo not drawn)
Compound 0.1 µM
  viability, T/C: 86.7% [middle of 17 runs]
Compound 0.316 µM
  viability, T/C: 86.7% [middle of 17 runs]
Compound alone, run of 08/26/2021
  IC50: 6.52 µM [middle of 5 runs]

## CC1COCCN1c1cc(-c2ccnn2C)c2ccnc(-c3ccn[nH]3)c2n1 (stereo not drawn) + CNCc1ccccc1-c1csc(C(C)Nc2nc(C)nc3cc(OC)c(OC)cc23)c1
[1]
  IC50: > 3.16 µM
[2]
  IC50: > 3.16 µM
[3]
  IC50: > 3.16 µM
[4]
  IC50: < 0.01 µM
[5]
  IC50: < 0.01 µM
[31]
  viability, T/C: 83.9%
[6]
  viability, T/C: 90.4%
[7]
  viability, T/C: 80.4%
[8]
  viability, T/C: 76.2%
[9]
  viability, T/C: 64.4%
[10]
  viability, T/C: 81.2%
[32]
  viability, T/C: 79.5%
[11]
  viability, T/C: 70.4%
[12]
  viability, T/C: 71%
[13]
  viability, T/C: 57.9%
[14]
  viability, T/C: 69.3%
[15]
  viability, T/C: 68.4%
[33]
  viability, T/C: 68.6%
[16]
  viability, T/C: 63.3%
[17]
  viability, T/C: 58.1%
[18]
  viability, T/C: 47.3%
[19]
  viability, T/C: 55.1%
[20]
  viability, T/C: 63.7%
[34]
  viability, T/C: 0.45%
[21]
  viability, T/C: 0.29%
[22]
  viability, T/C: 1.4%
[23]
  viability, T/C: 0.26%
[24]
  viability, T/C: 0.42%
[25]
  viability, T/C: 0.43%
[35]
  viability, T/C: 0.19%
[26]
  viability, T/C: 0.19%
[27]
  viability, T/C: 0.21%
[28]
  viability, T/C: 0.16%
[29]
  viability, T/C: 0.17%
[30]
  viability, T/C: 0.3%

## CC(C)n1nc(-c2ccc3oc(N)nc3c2)c2c(N)ncnc21 + COc1cc2nc(C)nc(NC(C)c3cc(N)cc(C(F)(F)F)c3)c2cc1OC1CCOC1
[1]
  IC50: 0.0975 µM
[2]
  IC50: 0.0947 µM
[3]
  IC50: 0.092 µM
[4]
  IC50: 0.0566 µM
[5]
  IC50: < 0.000316 µM
Second compound 0.1 µM, first compound 0.000316 µM
  viability, T/C: 96.3%
Second compound 0.1 µM, first compound 0.001 µM
  viability, T/C: 96%
Second compound 0.1 µM, first compound 0.00316 µM
  viability, T/C: 79.9%
[31]
  viability, T/C: 73.8%
[6]
  viability, T/C: 63.9%
[7]
  viability, T/C: 49.1%
Second compound 0.316 µM, first compound 0.000316 µM
  viability, T/C: 101%
Second compound 0.316 µM, first compound 0.001 µM
  viability, T/C: 85.9%
Second compound 0.316 µM, first compound 0.00316 µM
  viability, T/C: 80%
[32]
  viability, T/C: 69.6%
[11]
  viability, T/C: 64.6%
[12]
  viability, T/C: 47.3%
Second compound 1 µM, first compound 0.000316 µM
  viability, T/C: 94.8%
Second compound 1 µM, first compound 0.001 µM
  viability, T/C: 87.1%
Second compound 1 µM, first compound 0.00316 µM
  viability, T/C: 74.8%
[33]
  viability, T/C: 75.1%
[16]
  viability, T/C: 63%
[17]
  viability, T/C: 46.8%
Second compound 3.16 µM, first compound 0.000316 µM
  viability, T/C: 64.9%
Second compound 3.16 µM, first compound 0.001 µM
  viability, T/C: 66.8%
Second compound 3.16 µM, first compound 0.00316 µM
  viability, T/C: 63.5%
[34]
  viability, T/C: 60.1%
[21]
  viability, T/C: 61.6%
[22]
  viability, T/C: 39.5%
Second compound 10 µM, first compound 0.000316 µM
  viability, T/C: 32%
Second compound 10 µM, first compound 0.001 µM
  viability, T/C: 24.6%
Second compound 10 µM, first compound 0.00316 µM
  viability, T/C: 68.8%
[35]
  viability, T/C: 60.7%
[26]
  viability, T/C: 45.5%
[27]
  viability, T/C: 39.6%
